Measured values taken from ChEMBL document CHEMBL4680145, “Expansion of chemical space based on a pyrrolo[1,2-a]pyrazine core: Synthesis and its anticancer activity in prostate cancer and breast cancer cells” (Eur J Med Chem, 2020).
Active and inactive are the calls of the source. No cut-off for these calls is given here.

How the values were obtained:
[1] = test system: PC-3; assay: Cytotoxicity against human PC-3 cells assessed as cell viability at 30 uM incubated for 48 hrs by MTS assay relative to control; format: functional; details: read-out: Activity
[2] = test system: MCF7; assay: Cytotoxicity against human MCF7 cells assessed as cell viability at 30 uM incubated for 48 hrs by MTS assay relative to control; format: functional; details: read-out: Activity
[3] = test system: PC-3; assay: Cytotoxicity against human PC-3 cells assessed as reduction in cell viability incubated for 48 hrs by MTS assay; format: functional, cell-based; details: PC-3, 48 h
[4] = test system: MCF7; assay: Antimigratory activity against human MCF7 cells assessed as reduction in cell migration measured every 2 hrs for 24 hrs by wound healing assay; format: functional, cell-based; details: dose 1-10 µM
[5] = test system: PC-3; assay: Antimigratory activity against human PC-3 cells assessed as reduction in cell migration measured every 2 hrs for 24 hrs by wound healing assay; format: functional, cell-based; details: dose 1-10 µM
[6] = test system: MCF7; assay: Induction of apoptosis in human MCF7 cells assessed as increase in caspase-3 activity at 10 uM incubated for 24 hrs by Hoechst 33342 staining based fluorescence microscopy; format: functional, cell-based
[7] = test system: MCF7; assay: Induction of apoptosis in human MCF7 cells assessed as increase in cleaved PARP incubated for 24 hrs by Western blot analysis; format: functional, cell-based
[8] = test system: MCF7; assay: Induction of apoptosis in human MCF7 cells assessed as increase in caspase-3 activity incubated for 24 hrs by caspase-3 substrate and Hoechst 33342 dye based fluorescence assay; format: functional, cell-based; details: dose 1-10 µM
[9] = test system: MCF7; assay: Cytotoxicity against human MCF7 cells assessed as reduction cell viability incubated for 48 hrs by MTS assay; format: functional, cell-based; details: MCF7, 48 h
[10] = test system: MCF7; assay: Induction of apoptosis in human MCF7 cells assessed as increase in caspase-3 activity at 10 uM incubated for 24 hrs in presence of Ac-DEVD-CHO by Hoechst 33342 dye based fluorescence assay; format: functional, cell-based
[11] = test system: PC-3; assay: Induction of apoptosis in human PC-3 cells assessed as increase in caspase-3 activity incubated for 24 hrs by caspase-3 substrate and Hoechst 33342 dye based fluorescence assay; format: functional, cell-based; details: dose 1-10 µM
[12] = test system: PC-3; assay: Induction of apoptosis in human PC-3 cells assessed as increase in caspase-3 activity at 10 uM incubated for 24 hrs by Hoechst 33342 staining based fluorescence microscopy; format: functional, cell-based
[13] = test system: PC-3; assay: Induction of apoptosis in human PC-3 cells assessed as increase in caspase-3 activity at 10 uM incubated for 24 hrs in presence of Ac-DEVD-CHO by Hoechst 33342 dye based fluorescence assay; format: functional, cell-based
[14] = test system: PC-3; assay: Induction of apoptosis in human PC-3 cells assessed as increase in cleaved PARP incubated for 24 hrs by Western blot analysis; format: functional, cell-based; details: dose 3-30 µM

SMILES | viability at 30 µM [1] | viability at 30 µM [2] | further results
COc1ccc(C(=O)[C@@H]2[C@@H](c3ccco3)N=Cc3cccn32)cc1 (relative stereo) | 55.7% | 99.9% | 
Cc1ccc([C@H]2N=Cc3cccn3[C@@H]2C(=O)c2ccc(F)cc2)cc1 (relative stereo) | 99.8% | 111% | 
O=C(c1ccc(F)cc1)[C@@H]1[C@@H](c2ccc(Br)cc2)N=Cc2cccn21 (relative stereo) | 18.5% | 31.1% | IC50 [3]: 16.4 µM
COc1ccc([C@H]2N=Cc3cccn3[C@@H]2C(=O)c2ccc(Br)cc2)cc1 (relative stereo) | 28.6% | 39.8% | IC50 [3]: 20.6 µM
O=C(c1ccc(Br)cc1)[C@@H]1[C@@H](c2ccccn2)N=Cc2cccn21 (relative stereo) | 73.2% | 67.5% | 
COc1cccc(C(=O)[C@@H]2[C@@H](c3ccc(Cl)cc3)N=Cc3cccn32)c1 (relative stereo) | 99.6% | 118% | 
O=C(c1ccc(Cl)cc1)[C@@H]1[C@@H](c2ccccc2)N=Cc2cccn21 (relative stereo) | 99.9% | 99.3% | 
O=C(c1ccc(F)cc1)[C@@H]1[C@@H](c2ccco2)N=Cc2cccn21 (relative stereo) | 99.4% | 70% | 
CCOC(=O)C[N+]1=Cc2cccn2[C@H](C(=O)c2ccc(Br)cc2)[C@H]1c1ccccc1 (relative stereo) | 10.7% | 24% | IC50 [3]: 8.74 µM
O=C(c1ccc(Br)cc1)[C@@H]1[C@@H](c2ccccc2)[N+](Cc2ccccc2)=Cc2cccn21 (relative stereo) | 97.9% | 98.1% | 
COc1ccc(C(=O)[C@@H]2[C@@H](c3ccc(Br)cc3)N=Cc3cccn32)cc1 (relative stereo) | 96.4% | 100% | 
O=C(c1ccccc1)[C@@H]1[C@@H](c2ccco2)N=Cc2cccn21 (relative stereo) | 59% | 95.3% | 
O=C(C[N+]1=Cc2cccn2[C@H](C(=O)c2ccc(Br)cc2)[C@H]1c1ccccc1)c1ccc(Cl)cc1 (relative stereo) | 80.8% | 82.5% | 
COc1cc(OC)cc([C@H]2N=Cc3cccn3[C@@H]2C(=O)c2ccccc2)c1 (relative stereo) | 106% | 102% | 
COc1cccc(C(=O)[C@@H]2[C@@H](c3ccccc3)N=Cc3cccn32)c1 (relative stereo) | 104% | 104% | 
O=C(C[N+]1=Cc2cccn2[C@H](C(=O)c2ccc(Br)cc2)[C@H]1c1ccccc1)c1ccccc1 (relative stereo) | 9.1% | 25.5% | inhibition [4]: Dose-dependent effect; inhibition [5]: Dose-dependent effect; Activity [6]: Active; Activity [7]: Dose-dependent effect; Activity [8]: Dose-dependent effect; IC50 [9]: 3.65 µM; Activity [10]: inactive; IC50 [3]: 3.45 µM; Activity [11]: Dose-dependent effect; Activity [12]: Active; Activity [13]: inactive; Activity [14]: Dose-dependent effect
O=C(c1ccccc1)[C@@H]1[C@@H](c2ccc(Cl)cc2)N=Cc2cccn21 (relative stereo) | 84.8% | 102% | 
O=C(c1ccc(Br)cc1)[C@@H]1[C@@H](c2ccco2)N=Cc2cccn21 (relative stereo) | 99.2% | 96.5% | 
O=C(c1ccc(Br)cc1)c1c(-c2ccccc2)ncc2cccn12 | 5.8% | 37% | IC50 [3]: 7.17 µM
O=C(c1ccccc1)[C@@H]1[C@@H](c2ccccc2)N=Cc2cccn21 (relative stereo) | 106% | 104% | 
Cc1ccc([C@H]2N=Cc3cccn3[C@@H]2C(=O)c2ccc(Br)cc2)cc1 (relative stereo) | 99% | 99.9% | 
COc1ccc(C(=O)[C@@H]2[C@@H](c3ccc(C)cc3)N=Cc3cccn32)cc1 (relative stereo) | 81.3% | 77.4% | 

SMILES | viability at 30 µM [1] | viability at 30 µM [2] | further results
COc1ccccc1[C@H]1N=Cc2cccn2[C@@H]1C(=O)c1ccc(F)cc1 (relative stereo) | 86.4% | 69.3% | 
O=C(c1ccccc1)[C@@H]1[C@@H](c2cc3ccccc3[nH]2)N=Cc2cccn21 (relative stereo) | 92.1% | 106% | 
O=C(c1ccc(F)cc1)[C@@H]1[C@@H](c2ccccc2)N=Cc2cccn21 (relative stereo) | 76% | 70.3% | 
O=C(c1ccc(Br)cc1)[C@@H]1[C@@H](c2ccccc2)N=Cc2cccn21 (relative stereo) | 68.5% | 66.9% | 
Cc1ccc([C@H]2N=Cc3cccn3[C@@H]2C(=O)c2ccc(Cl)cc2)cc1 (relative stereo) | 104% | 100% | 
COc1ccc(C(=O)[C@@H]2[C@@H](c3ccc(OC)c(OC)c3)N=Cc3cccn32)cc1 (relative stereo) | 102% | 98% | 
COc1ccccc1[C@H]1N=Cc2cccn2[C@@H]1C(=O)c1ccc(Cl)cc1 (relative stereo) | 99.5% | 96.5% | 
COc1cccc(C(=O)[C@@H]2[C@@H](c3ccncc3)N=Cc3cccn32)c1 (relative stereo) | 91.4% | 95.5% | 
O=C(C[N+]1=Cc2cccn2[C@H](C(=O)c2ccc(Br)cc2)[C@H]1c1ccccc1)c1ccc(F)cc1 (relative stereo) | 10.7% | 33.8% | 
COc1ccc([C@H]2N=Cc3cccn3[C@@H]2C(=O)c2ccc(F)cc2)cc1OC (relative stereo) | 96.7% | 72.8% | 
O=C(c1ccc(Cl)cc1)[C@@H]1[C@@H](c2ccc[nH]2)N=Cc2cccn21 (relative stereo) | 102% | 102% | 
O=C(c1ccccc1)[C@@H]1[C@@H](c2ccc(Br)cc2)N=Cc2cccn21 (relative stereo) | 83.3% | 99.9% | 
O=C(c1ccccc1)[C@@H]1[C@@H](c2ccc([N+](=O)[O-])cc2)N=Cc2cccn21 (relative stereo) | 86.9% | 85.1% | 
O=C(C[N+]1=Cc2cccn2[C@H](C(=O)c2ccc(F)cc2)[C@H]1c1ccc(Br)cc1)c1ccccc1 (relative stereo) | 3.4% | 3.6% | inhibition [4]: Dose-dependent effect; inhibition [5]: Dose-dependent effect; Activity [6]: Active; Activity [7]: Dose-dependent effect; Activity [8]: Dose-dependent effect; IC50 [9]: 1.95 µM; Activity [10]: inactive; IC50 [3]: 1.18 µM; Activity [11]: Dose-dependent effect; Activity [12]: Active; Activity [13]: inactive; Activity [14]: Dose-dependent effect
COc1ccc([C@@H]2[C@@H](C(=O)c3ccc(Br)cc3)n3cccc3C=[N+]2CC(=O)c2ccccc2)cc1 (relative stereo) | 6.3% | 6.4% | inhibition [4]: Dose-dependent effect; inhibition [5]: Dose-dependent effect; IC50 [9]: 2.45 µM; IC50 [3]: 2.19 µM
O=C(c1ccc(F)cc1)[C@@H]1[C@@H](c2ccncc2)N=Cc2cccn21 (relative stereo) | 100% | 78.5% | 
COc1ccccc1[C@H]1N=Cc2cccn2[C@@H]1C(=O)c1ccccc1 (relative stereo) | 95.5% | 107% | 
COc1ccc(C(=O)C[N+]2=Cc3cccn3[C@H](C(=O)c3ccc(Br)cc3)[C@H]2c2ccccc2)cc1 (relative stereo) | 56% | 54.5% | 
C[N+]1=Cc2cccn2[C@H](C(=O)c2ccc(Br)cc2)[C@H]1c1ccccc1 (relative stereo) | 97.9% | 98.1% | 
COc1ccc([C@H]2N=Cc3cccn3[C@@H]2C(=O)c2cccc(OC)c2)cc1 (relative stereo) | 83.8% | 77.9% | 
Cc1ccc([C@H]2N=Cc3cccn3[C@@H]2C(=O)c2ccccc2)cc1 (relative stereo) | 108% | 108% | 
